In the supplement of paper PMC7021759:
± gives the standard deviation of the averaged measurements.

Test system: SK-N-MM (SKNMM-MYCN, doxycycline-inducible MYCN)
Test: area under dose-response curve (CellTiter-Glo viability normalised to plate controls) (AUC (arbitrary units)); higher = more loss of viability; extreme values may be limits of the assay
Summary of the method: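 SK-N-MM cells with doxycycline-inducible MYCN were plated at 1250 cells/100 μL in 96-well plates and given medium with or without doxycycline about 24 h later. Two days later, 10-point 1:3 compound dilution series were pin-transferred (890-fold stock dilution) and re-dosed on day 4. CellTiter-Glo luminescence was read 3 or 8 days after drugging. Log2 signals were normalised to plate positive and negative controls, and area under the dose-response curve was computed.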

[1] = MYCN induction (doxycycline): +doxycycline (MYCN induced), time after drugging: 3 days
[2] = MYCN induction (doxycycline): +doxycycline (MYCN induced), time after drugging: 8 days
[3] = MYCN induction (doxycycline): no doxycycline (MYCN not induced), time after drugging: 3 days
[4] = MYCN induction (doxycycline): no doxycycline (MYCN not induced), time after drugging: 8 days

| Compound | area under dose-response curve [1] | area under dose-response curve [2] | area under dose-response curve [3] | area under dose-response curve [4] |
| --- | --- | --- | --- | --- |
| CC1(C)CCC(c2ccc(Cl)cc2)=C(CN2CCN(c3ccc(C(=O)NS(=O)(=O)c4ccc(N[C@H](CCN5CCOCC5)CSc5ccccc5)c(S(=O)(=O)C(F)(F)F)c4)cc3)CC2)C1 [NAVITOCLAX] | 8.7 | 3.92 | 0 | 0.362 |
| CN1CCC(CNc2ccc3ncc(-c4cccc(OC(F)(F)F)c4)n3n2)CC1 [SGI-1776] | – | 144 | – | 138 |
| CCC1(c2ccc(N)cc2)CCC(=O)NC1=O (stereo unspecified) [AMINOGLUTETHIMIDE] | 0 | 0 | 0 | – |
| CCN(CC)Cc1ccc2cc(COC(=O)Nc3ccc(C(=O)NO)cc3)ccc2c1 [GIVINOSTAT] | 132 | 283 | 96.7 | 226 |
| C#Cc1cccc(Nc2ncnc3cc(OCCOC)c(OCCOC)cc23)c1 [ERLOTINIB] | – | 1.15 | 18.8 | – |
| C=CCn1c(=O)c2cnc(Nc3ccc(N4CCN(C)CC4)cc3)nc2n1-c1cccc(C(C)(C)O)n1 [MK-1775] | 105 ± 20 | 159 ± 26 | 42.5 ± 14 | 98.1 ± 4.8 |
| CC/C(=C(\c1ccccc1)c1ccc(OCCN(C)C)cc1)c1ccccc1 [TAMOXIFEN] | 0 | 0 | 0 | 0 |
| CS(=O)(=O)c1ccc(C(=O)Nc2ccc(Cl)c(-c3ccccn3)c2)c(Cl)c1 [VISMODEGIB] | 0 | 0 | 0 | 0 |
| CC(=O)c1c(C)c2cnc(Nc3ccc(N4CCNCC4)cn3)nc2n(C2CCCC2)c1=O [PALBOCICLIB] | 0 | 78.6 | 0 | 65.5 |
| Cc1ccc(Nc2nccc(N(C)c3ccc4c(C)n(C)nc4c3)n2)cc1S(N)(=O)=O [PAZOPANIB] | 21.1 | 40.1 | 18.1 | 29.2 |
| COc1cc([C@@H]2c3cc4c(cc3[C@@H](O[C@@H]3O[C@@H]5CO[C@@H](C)O[C@H]5[C@H](O)[C@H]3O)[C@H]3COC(=O)[C@H]23)OCO4)cc(OC)c1O [ETOPOSIDE] | 42.1 | 114 | 18.8 | 43.1 |
| CCN(CCO)CCCC(C)Nc1ccnc2cc(Cl)ccc12 (stereo unspecified) [HYDROXYCHLOROQUINE] | 0 | 0 | – | 0 |
| COc1ncc(-c2ccc3nccc(-c4ccnnc4)c3c2)cc1NS(=O)(=O)c1ccc(F)cc1F [OMIPALISIB] | 105 | 183 | 86.2 | 160 |
| CCN(CC)CCNC(=O)c1c(C)[nH]c(/C=C2\C(=O)Nc3ccc(F)cc32)c1C [SUNITINIB] | 3.49 | 132 | 3.64 | 140 |
| Nc1nc(=O)n([C@H]2C[C@H](O)[C@@H](CO)O2)cc1F [5-FLUORODEOXYCYTIDINE] | 23.7 | 184 | 9.38 | 58.5 |
| OCCN1CCN(CCCN2c3ccccc3Sc3ccc(C(F)(F)F)cc32)CC1 [FLUFENAZINE] | 0 | 0 | 0 | 0 |
| CC[C@@]1(O)C(=O)OCc2c1cc1n(c2=O)Cc2cc3c(CN(C)C)c(O)ccc3nc2-1 [TOPOTECAN] | 139 | 216 | 68.5 | 105 |

| Compound | area under dose-response curve [1] | area under dose-response curve [2] | area under dose-response curve [3] | area under dose-response curve [4] |
| --- | --- | --- | --- | --- |
| CC(=O)O[C@H]1CC[C@@]2(C)C(=CC[C@@H]3[C@@H]2CC[C@]2(C)C(c4cccnc4)=CC[C@@H]32)C1 [ABIRATERONE ACETATE] | 8.14 | 0 | 6.74 | 0.368 |
| CN1CCCN(C(=O)c2cccc(-c3ccc(/C=C4/C(=O)Nc5ccc(Cl)cc54)o3)c2)CC1 [CX-6258] | 165 | 206 | 166 | 202 |
| COc1cc2/c(=N/c3ccc(Br)cc3F)nc[nH]c2cc1OCC1CCN(C)CC1 [VANDETANIB] | 3.18 | 0 | 2.99 | 125 |
| CCc1c2c(nc3ccc(O)cc13)-c1cc3c(c(=O)n1C2)COC(=O)[C@]3(O)CC [SN-38] | 152 ± 8.4 | 295 ± 33 | 67.4 ± 16 | 181 ± 37 |
| Cn1c(=O)n(-c2ccc(C(C)(C)C#N)cc2)c2c3cc(-c4cnc5ccccc5c4)ccc3ncc21 [DACTOLISIB] | 73.9 | 132 | 62.3 | 96.3 |
| CN[C@@H]1C[C@H]2O[C@@](C)([C@@H]1OC)n1c3ccccc3c3c4c(c5c6ccccc6n2c5c31)C(=O)N[C@H]4O [7-HYDROXYSTAUROSPORINE] | 204 | 290 | 144 | 249 |
| N#CN=C(NCCCCCCOc1ccc(Cl)cc1)Nc1ccncc1 [GMX-1778] | 172 | 348 | 119 | 338 |
| C[C@@H]1O[C@@H](O[C@H]2C[C@@H](O)[C@]3(CO)[C@H]4[C@H](O)C[C@]5(C)[C@@H](C6=CC(=O)OC6)CC[C@]5(O)[C@@H]4CC[C@]3(O)C2)[C@H](O)[C@H](O)[C@H]1O [OUABAIN] | 178 | 280 | 173 | 275 |
| COc1c(C)c2c(c(O)c1C/C=C(\C)CCC(=O)OCCN1CCOCC1)C(=O)OC2 [MYCOPHENOLATE MOFETIL] | 43.8 | 115 | 25.9 | 51.4 |
| CCC(=O)OCN1C(=O)C=CC1=O [MIRA-1] | – | – | – | 39 |
| C[C@H]1C[C@H]2[C@@H]3CCC4=CC(=O)C=C[C@]4(C)[C@@]3(F)[C@@H](O)C[C@]2(C)[C@@]1(O)C(=O)CO [BETAMETHASONE] | 0 | 0 | 0 | – |
| CC1(C)CCC(C)(C)c2cc(NC(=O)c3ccc(C(=O)O)cc3)ccc21 [TAMIBAROTENE] | 1.1 | 3.09 | 0 | 0 |
| COc1cc2nc(N3CCCN(C)CC3)nc(NC3CCN(Cc4ccccc4)CC3)c2cc1OC | 195 | 247 | 194 | 243 |
| CC12CC3CC(C)(C1)CC(N)(C3)C2 [MEMANTINE] | 0 | 0 | 0 | 0 |
| CN(Cc1cnc2nc(N)nc(N)c2n1)c1ccc(C(=O)N[C@@H](CCC(=O)O)C(=O)O)cc1 [METHOTREXATE] | 3.6 | 18.6 | 0.0478 | – |
| COc1cc2nccc(Oc3ccc(NC(=O)Nc4cc(C)on4)c(Cl)c3)c2cc1OC [TIVOZANIB] | 0 | 0 | 0 | 0 |
